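These data come from cells grown in 96-well plates and exposed to compound for 48 hours at five concentrations. The concentration for 50% growth inhibition is given as GI50.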 Calls of active or inactive are those of the source. Cut-off read from the data, not from the text of the source: active = GI50 up to about 1.1 µM and inactive = higher.
What was measured:
Assay in all cases: DTP human tumour cell line panel, 48 h
SK-MEL-28 = tested on: SK-MEL-28
SN12C = tested on: SN12C
SW-620 = tested on: SW-620
KM-20L2 = tested on: KM-20L2
M19-MEL = tested on: M19-MEL
HOP-92 = tested on: HOP-92
HCT-15 = tested on: HCT-15
UACC-257 = tested on: UACC-257
SNB-78 = tested on: SNB-78
HCC 2998 = tested on: HCC 2998
DMS-114 = tested on: DMS-114
DLD-1 = tested on: DLD-1
TK-10 = tested on: TK-10
CCRF-CEM = tested on: CCRF-CEM
OVCAR-4 = tested on: OVCAR-4
A498 = tested on: A498
OVCAR-8 = tested on: OVCAR-8
OVCAR-3 = tested on: OVCAR-3
A549 = tested on: A549
CAKI-1 = tested on: CAKI-1
ACHN = tested on: ACHN
NCI-H226 = tested on: NCI-H226
EKVX = tested on: EKVX
HCT-116 = tested on: HCT-116
786-0 = tested on: 786-0
OVCAR-5 = tested on: OVCAR-5
LXFL 529 = tested on: LXFL 529
HOP-18 = tested on: HOP-18
RPMI-8226 = tested on: RPMI-8226
HL-60 = tested on: HL-60
COLO 205 = tested on: COLO 205
SR = tested on: SR
KM12 = tested on: KM12
UACC-62 = tested on: UACC-62
DMS-273 = tested on: DMS-273
SNB-19 = tested on: SNB-19
RXF 393 = tested on: RXF 393
SF-295 = tested on: SF-295
SNB-75 = tested on: SNB-75
Malme-3M = tested on: Malme-3M
IGROV-1 = tested on: IGROV-1
NCI-H522 = tested on: NCI-H522
NCI-H23 = tested on: NCI-H23
RXF 631 = tested on: RXF 631
HT-29 = tested on: HT-29
HOP-62 = tested on: HOP-62
K562 = tested on: K562
UO-31 = tested on: UO-31
LOX IMVI = tested on: LOX IMVI
SK-OV-3 = tested on: SK-OV-3
M14 = tested on: M14
MOLT-4 = tested on: MOLT-4
U-251 = tested on: U-251
SF-268 = tested on: SF-268
NCI-H460 = tested on: NCI-H460
SF-539 = tested on: SF-539
SK-MEL-5 = tested on: SK-MEL-5
SK-MEL-2 = tested on: SK-MEL-2

For Cc1cc(Br)cc(C)c1NC(=O)C(=O)CC(=O)c1sc(-n2nc(-c3ccccc3)cc2-c2ccccc2)nc1C, the GI50 (SK-MEL-28) was > 100 µM (inactive), the GI50 (SN12C) was > 100 µM (inactive) and the GI50 (SW-620) was > 100 µM (inactive). For the same compound, the GI50 (KM-20L2) was > 100 µM (inactive), the GI50 (M19-MEL) was > 100 µM (inactive) and the GI50 (HOP-92) was > 100 µM (inactive). The GI50 (HCT-15) was greater than 100 µM, the GI50 (UACC-257) was > 100 µM (inactive) and the GI50 (SNB-78) was > 100 µM (inactive). For the same compound, the GI50 (HCC 2998) was > 100 µM (inactive), the GI50 (DMS-114) was > 100 µM (inactive) and the GI50 (DLD-1) was > 100 µM (inactive). For the same compound, the GI50 (TK-10) was > 100 µM (inactive), the GI50 (CCRF-CEM) was > 100 µM (inactive) and the GI50 (OVCAR-4) was > 100 µM (inactive). For the same compound, the GI50 (A498) was > 100 µM (inactive), the GI50 (OVCAR-8) was > 100 µM (inactive) and the GI50 (OVCAR-3) was > 100 µM (inactive). The GI50 (A549) was > 100 µM (inactive), the GI50 (CAKI-1) was > 100 µM (inactive) and the GI50 (ACHN) was > 100 µM (inactive). For the same compound, the GI50 (NCI-H226) was > 100 µM (inactive), the GI50 (EKVX) was > 100 µM (inactive) and the GI50 (HCT-116) was > 100 µM (inactive). The GI50 (786-0) was > 100 µM (inactive), the GI50 (OVCAR-5) was > 100 µM (inactive) and the GI50 (LXFL 529) was > 100 µM (inactive). For the same compound, the GI50 (HOP-18) was > 100 µM (inactive), the GI50 (RPMI-8226) was > 100 µM (inactive) and the GI50 (HL-60) was > 100 µM (inactive). For the same compound, the GI50 (COLO 205) was > 100 µM (inactive), the GI50 (SR) was > 100 µM (inactive) and the GI50 (KM12) was > 100 µM (inactive). For the same compound, the GI50 (UACC-62) was > 100 µM (inactive), the GI50 (DMS-273) was > 100 µM (inactive) and the GI50 (SNB-19) was > 100 µM (inactive). The GI50 (RXF 393) was > 100 µM (inactive), the GI50 (SF-295) was > 100 µM (inactive) and the GI50 (SNB-75) was 49.9 µM (inactive). For the same compound, the GI50 (Malme-3M) was > 100 µM (inactive), the GI50 (IGROV-1) was > 100 µM (inactive) and the GI50 (NCI-H522) was > 100 µM (inactive). The GI50 (NCI-H23) was > 100 µM (inactive), the GI50 (RXF 631) was > 100 µM (inactive) and the GI50 (HT-29) was > 100 µM (inactive). The GI50 (HOP-62) was > 100 µM (inactive), the GI50 (K562) was > 100 µM (inactive) and the GI50 (UO-31) was > 100 µM (inactive). For the same compound, the GI50 (LOX IMVI) was > 100 µM (inactive), the GI50 (SK-OV-3) was > 100 µM (inactive) and the GI50 (M14) was > 100 µM (inactive). For the same compound, the GI50 (MOLT-4) was > 100 µM (inactive), the GI50 (U-251) was > 100 µM (inactive) and the GI50 (SF-268) was > 100 µM (inactive). The GI50 (NCI-H460) was > 100 µM (inactive).
For O=C1C(=O)N(C(=O)c2ccc(Cl)c(Cl)c2)c2ccccc21, the GI50 (SK-MEL-28) was > 100 µM (inactive), the GI50 (SW-620) was > 100 µM (inactive) and the GI50 (M19-MEL) was > 100 µM (inactive). For the same compound, the GI50 (SNB-78) was > 100 µM (inactive), the GI50 (DMS-114) was > 100 µM (inactive) and the GI50 (DLD-1) was > 100 µM (inactive). For the same compound, the GI50 (TK-10) was > 100 µM (inactive), the GI50 (CCRF-CEM) was > 100 µM (inactive) and the GI50 (OVCAR-4) was > 100 µM (inactive). The GI50 (OVCAR-8) was > 100 µM (inactive), the GI50 (OVCAR-3) was > 100 µM (inactive) and the GI50 (A549) was > 100 µM (inactive). For the same compound, the GI50 (ACHN) was > 100 µM (inactive), the GI50 (NCI-H226) was 44.9 µM (inactive) and the GI50 (EKVX) was > 100 µM (inactive). For the same compound, the GI50 (786-0) was > 100 µM (inactive), the GI50 (OVCAR-5) was > 100 µM (inactive) and the GI50 (SF-539) was > 100 µM (inactive). For the same compound, the GI50 (SK-MEL-5) was > 100 µM (inactive), the GI50 (LXFL 529) was > 100 µM (inactive) and the GI50 (HOP-18) was > 100 µM (inactive). For the same compound, the GI50 (RPMI-8226) was > 100 µM (inactive), the GI50 (HL-60) was > 100 µM (inactive) and the GI50 (COLO 205) was > 100 µM (inactive). For the same compound, the GI50 (SR) was > 100 µM (inactive), the GI50 (KM12) was > 100 µM (inactive) and the GI50 (UACC-62) was > 100 µM (inactive). The GI50 (DMS-273) was > 100 µM (inactive), the GI50 (SNB-19) was > 100 µM (inactive) and the GI50 (RXF 393) was > 100 µM (inactive). For the same compound, the GI50 (SF-295) was > 100 µM (inactive), the GI50 (SNB-75) was 58.6 µM (inactive) and the GI50 (IGROV-1) was > 100 µM (inactive). The GI50 (NCI-H23) was > 100 µM (inactive), the GI50 (RXF 631) was > 100 µM (inactive) and the GI50 (HT-29) was > 100 µM (inactive). The GI50 (K562) was > 100 µM (inactive), the GI50 (UO-31) was > 100 µM (inactive) and the GI50 (LOX IMVI) was > 100 µM (inactive). The GI50 (SK-OV-3) was > 100 µM (inactive), the GI50 (M14) was > 100 µM (inactive) and the GI50 (MOLT-4) was > 100 µM (inactive). The GI50 (U-251) was > 100 µM (inactive) and the GI50 (SF-268) was > 100 µM (inactive).
Cc1cccc2cc3cccc(C(=O)NCCN(C)C)c3nc12 was tested, and the GI50 (SK-MEL-28) was 0.519 µM (active), the GI50 (SN12C) was 0.063 µM (active) and the GI50 (SW-620) was 0.0394 µM (active). For the same compound, the GI50 (KM-20L2) was 0.242 µM (active), the GI50 (M19-MEL) was 0.157 µM (active) and the GI50 (HOP-92) was 0.185 µM (active). For the same compound, the GI50 (HCT-15) was 0.0993 µM, the GI50 (UACC-257) was 0.245 µM (active) and the GI50 (SNB-78) was 0.614 µM (active). For the same compound, the GI50 (HCC 2998) was 0.181 µM (active), the GI50 (DMS-114) was 0.115 µM (active) and the GI50 (DLD-1) was 0.119 µM (active). For the same compound, the GI50 (TK-10) was 0.317 µM (active), the GI50 (CCRF-CEM) was 0.0575 µM (active) and the GI50 (OVCAR-4) was 0.27 µM (active). For the same compound, the GI50 (SK-MEL-2) was 0.579 µM (active), the GI50 (A498) was 0.045 µM (active) and the GI50 (OVCAR-8) was 0.0925 µM (active). The GI50 (OVCAR-3) was 0.366 µM (active), the GI50 (A549) was 0.0171 µM (active) and the GI50 (CAKI-1) was 0.027 µM (active). The GI50 (ACHN) was 0.0257 µM (active), the GI50 (NCI-H226) was 0.0638 µM (active) and the GI50 (EKVX) was 0.362 µM (active). The GI50 (HCT-116) was 0.0354 µM (active), the GI50 (786-0) was 0.129 µM (active) and the GI50 (OVCAR-5) was 0.292 µM (active). The GI50 (SF-539) was 0.129 µM (active), the GI50 (SK-MEL-5) was 0.173 µM (active) and the GI50 (LXFL 529) was 0.275 µM (active). The GI50 (HOP-18) was 0.399 µM (active), the GI50 (HL-60) was 0.028 µM (active) and the GI50 (COLO 205) was 0.0798 µM (active). For the same compound, the GI50 (SR) was 0.0224 µM (active), the GI50 (KM12) was 0.397 µM (active) and the GI50 (UACC-62) was 0.129 µM (active). The GI50 (DMS-273) was 0.0374 µM (active), the GI50 (SNB-19) was 0.191 µM (active) and the GI50 (RXF 393) was 0.269 µM (active). For the same compound, the GI50 (SF-295) was 0.131 µM (active), the GI50 (SNB-75) was 0.235 µM (active) and the GI50 (Malme-3M) was 0.139 µM (active). For the same compound, the GI50 (IGROV-1) was 0.38 µM (active), the GI50 (NCI-H522) was 0.151 µM (active) and the GI50 (NCI-H23) was 0.171 µM (active). For the same compound, the GI50 (RXF 631) was 0.0538 µM (active), the GI50 (HT-29) was 0.131 µM (active) and the GI50 (HOP-62) was 0.0745 µM (active). The GI50 (K562) was 0.203 µM (active), the GI50 (UO-31) was 0.083 µM (active) and the GI50 (LOX IMVI) was 0.083 µM (active). For the same compound, the GI50 (SK-OV-3) was 0.138 µM (active), the GI50 (M14) was 0.433 µM (active) and the GI50 (MOLT-4) was < 0.01 µM (active). For the same compound, the GI50 (U-251) was 0.0689 µM (active), the GI50 (SF-268) was 0.296 µM (active) and the GI50 (NCI-H460) was < 0.01 µM (active).

From ChEMBL document CHEMBL1201862, “PubChem BioAssay data set” (2004)
